Measured values reported in PubChem BioAssay AID179 (DTP/NCI, 2004).
Activity calls are given as the source filed them.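 Rule for the calls: active = compounds giving half or more protection of infected cells from virus-caused growth loss, again on retest; inactive = the rest.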 Where a SMILES comes first, the peptide text is derived from it.

Tested on: CEM cells HIV-1 protection, formazan growth assay
Assay: NCI AIDS Antiviral Assay
Details: for IC50: measured here: growth of uninfected CEM cells
Procedure, shortened: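 CEM (human) cells, HIV-1 infected vs uninfected, 5-point dosing, formazan growth read-out. Retest threshold 50% protection.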

Structure (SMILES)	EC50	IC50	outcome
NC1=Nc2ccccc2Sc2ccccc21	> 60.3 µM	> 60.3 µM	–
CC(C)=CC[P+](c1ccccc1)(c1ccccc1)c1ccccc1	> 200 µM	2.09 µM	–
CCOC(=O)c1c(-c2ccccc2)c(-c2ccccc2)cn1C	> 200 µM	46.8 µM	–
Brc1ccc2c(C3CN[C@@H](c4c[nH]c5cc(Br)ccc45)CN3)c[nH]c2c1 (stereo not given in full)	> 100 µM	4.57 µM	–
CC(N)C(=O)NC(CO)C(=O)NC(Cc1ccc(O)cc1)C(=O)NC(CO)C(=O)NC(C(=O)O)C(C)O (stereo not given) (H-ASYST-OH; configuration not given here)	> 95.5 µM	> 95.5 µM	–
N=C1C(=N)c2ccccc2-c2ccccc21	> 200 µM	0.407 µM	–
CC(=O)C1=C(C)NC(C)=C(C(C)=O)C1c1cccc([N+](=O)[O-])c1	182 µM	> 200 µM	–
COc1cccc(CC2C(=O)N=C(NC(C)=O)N2C)c1OC(C)=O (stereo not given)	> 200 µM	151 µM	–
c1csc(-c2ccc(-c3ccc(-c4ccc(-c5cccs5)s4)s3)s2)c1	> 200 µM	> 200 µM	–
O=c1[nH][nH]c(=O)n1CCCCCCn1c(=O)[nH][nH]c1=O	> 200 µM	> 200 µM	–
COc1ccc2c(c1)-c1nn(CCCN(C)C)c3ccc([N+](=O)[O-])c(c13)N2	> 537 µM	0.17 µM	inactive
COC(=O)c1cc(C(c2cc(C(=O)OC)c(O)c(Br)c2C)C(Cl)(Cl)Cl)c(C)c(Br)c1O	> 200 µM	112 µM	–
CCS(=O)(=O)c1cc(=O)[nH]c(=O)[nH]1	100 µM	240 µM	–
CSc1nc(N)c2c(n1)N(C)C=NS2(=O)=O	> 28.2 µM	> 28.2 µM	–
CCOC(=O)C(N)CSC(=O)NC (stereo not given)	> 1020 µM	87.1 µM	–
C(=C\c1c[nH]c2ccccc12)/c1ccc2ccccc2n1	0.0631 µM	16.6 µM	–
COc1ccc2c(c1)C(=O)/C(=C/c1ccccc1)C2	> 200 µM	47.9 µM	–
Cc1ccc(NC(=O)CC2Sc3ccccc3NC2=O)c(C)c1 (stereo not given)	> 79.4 µM	38.9 µM	–
CCCCn1c(N)c(N=O)c(=O)n(CCCC)c1=O	> 200 µM	89.1 µM	–
CONc1ncnc2c1ncn2C1OC(CO)CC1F (stereo not given)	> 178 µM	> 178 µM	–
O=C1/C(=C/c2ccc(O)c([N+](=O)[O-])c2)CCC/C1=C\c1ccc(O)c([N+](=O)[O-])c1	> 200 µM	11.7 µM	–
Cc1cc(-c2ccccc2)nc(Nc2cc3ccccc3[nH]2)n1	> 603 µM	> 603 µM	–

Structure (SMILES)	EC50	IC50	outcome
NCCC1([N+](=O)[O-])C=CN=CC1 (stereo not given)	–	–	inactive
COC(=O)C(CC(=O)c1c[nH]c2ccccc12)c1c[nH]c2ccccc12 (stereo not given)	–	–	inactive
CC(C)OP(=O)(OC(C)C)C(C(F)(F)F)C(F)(F)F	> 200 µM	> 200 µM	–
CC(=O)NC(C(=O)O)C(C)(C)SN=O (stereo not given)	> 1120 µM	240 µM	–
C/C(O)=C(\C=N\C(N)=S)C(=O)Nc1ccccc1	> 200 µM	> 200 µM	–
COC(=O)C1=C(C(=O)OC)C2(C3C(SC)=CC(C)(C)CC3S1)N(Cc1ccccc1)CCN2Cc1ccccc1 (stereo not given)	> 9.12 µM	> 9.12 µM	–
c1ccc2c(c1)nc1n2CSC1	–	–	inactive
O=C(/C(=C/c1cccc([N+](=O)[O-])c1)c1ccccc1)c1ccccc1	> 6.03 µM	4.07 µM	–
N#CCCN(c1ccc(/C=C2\N=C(Cc3ccccc3)OC2=O)cc1)S(=O)(=O)c1ccccc1	240 µM	275 µM	–
OCCC[N+]12CCCN1CCC2	> 200 µM	> 200 µM	–
CN(C)CCC(=O)N1C/C(=C/c2ccccc2)C(=O)/C(=C\c2ccccc2)C1	> 17.4 µM	0.339 µM	–
CCN(CC)CCNc1ccc2ncn3c4c(OC)ccc(=O)c4c(O)c1c23	> 50.1 µM	0.0219 µM	–
CCN1C[C@]2(CO)CCC(O)C34[C@@H]5C[C@@H]6C(OC(C)=O)[C@@H]5[C@](OC(C)=O)(C[C@@H]6OC)[C@@H](C(OC)[C@@H]32)[C@H]14 (stereo not given in full)	–	–	inactive
CC(=O)n1nnc2ccc([N+](=O)[O-])cc21	> 34.7 µM	> 34.7 µM	–
O=C1C=C(Nc2ccccc2C(=O)CC(=O)C(=O)Nc2cccc([N+](=O)[O-])c2)c2ccccc2C1=O	> 20.9 µM	15.5 µM	–
COC(=O)C1C2CC3C(OC(=O)C31)C2I (stereo not given)	–	–	inactive
CNC(=S)N/N=C(C)\C(=N/NC(=S)NC)c1ccccc1	> 200 µM	29.5 µM	–
N=C1C=CC2C(=Nc3ccccc3[N+]2=O)N1Cc1ccncc1 (stereo not given)	> 22.4 µM	21.4 µM	–
O=[N+]([O-])c1ccc2cnn(C[N+]34CN5CN(CN(C5)C3)C4)c2c1	–	–	inactive
CC(=O)O[C@H]1[C@@H]2[C@@H](C[C@H](C)[C@H]3C=CC(=O)[C@@]31C)OC(=O)[C@@H]2C	> 200 µM	34.7 µM	–
CC1C(=O)c2c(O)cc(O)cc2O[C@@H]1C (stereo not given in full)	> 200 µM	> 200 µM	–
CCC(C)C(=O)c1c(O)c(C/C=C(\C)CCC=C(C)C)c(O)c2c(C(O)CC)cc(=O)oc12 (stereo not given)	> 200 µM	1.55 µM	–

Structure (SMILES)	EC50	IC50	outcome
Cc1ccccc1NC(=S)N/N=C(/c1ccccc1)c1ccccn1	> 0.2 µM	0.0676 µM	–
Cn1cc(S(=O)(=O)NC(=O)Nc2ccc(Cl)cc2)c2ccccc21	> 200 µM	27.5 µM	–
O=C1/C(=C\c2cccc(Oc3ccccc3)c2)SC(c2ccccc2)N1c1cccc(Cl)c1 (stereo not given)	> 200 µM	16.2 µM	–
O=CN/C=C/c1ccccc1O	> 200 µM	> 200 µM	–
COC(=O)CC1CN(C(=O)OCc2ccccc2)C(C)(C)O1 (stereo not given)	> 200 µM	> 200 µM	–
COC1=C(OC)C(=O)c2cc(C)c(=O)c(C)cc2C1=O	> 13.2 µM	3.98 µM	–
CCOC(=O)C1C(c2ccccc2)=C(c2ccccc2)C(c2ccccc2)=C1c1ccccc1	–	–	inactive
COC(=O)[C@H](Cc1c[nH]c2ccccc12)NC(=O)OCC1OC(n2cc(C)c(=O)[nH]c2=O)CC1N=[N+]=[N-] (stereo not given in full)	> 158 µM	132 µM	–
CC(C)C1=CC2=CCC3C(C)(CN)CCCC3(C)C2CC1CCN (stereo not given)	> 100 µM	1.48 µM	–
O=C1CN(C(=O)C2CCCN2C(=O)C2CCCN2)C(=O)CN1 (stereo not given)	> 200 µM	> 200 µM	–
COc1c2c(c(OC)c3c(=O)cc(C/C(=N/NC(=O)C[n+]4ccccc4)C(=O)Nc4cc(C)ccc4C)oc13)OCO2	> 30.9 µM	> 30.9 µM	–
Brc1cnc2nsnc2c1	–	–	inactive
O=C1/C(=C/c2cccc([N+](=O)[O-])c2)Cc2ccccc21	> 200 µM	> 200 µM	–
COc1ccc2[nH]c3c(C)c4ccnc(NCCCN(C)CCCNc5ccc6ncn7c8ccccc8c(=O)c5c67)c4c(C)c3c2c1	> 0.0251 µM	0.00794 µM	–
COC1CCON1C(=O)c1ccccc1 (stereo not given)	> 200 µM	> 200 µM	–
CC(=O)Oc1c2c(c(OC(C)=O)c3c1n(C(C)=O)c1ccccc1n3C(C)=O)n(C(C)=O)c1ccccc1n2C(C)=O	> 33.1 µM	5.89 µM	–
CCOC(=O)C1(C(=O)OCC)CCC(C(OC)OC)C(CC(=O)OC)C1 (stereo not given)	> 200 µM	> 200 µM	–
COC(=O)c1cc2cccc(CS(=O)(=O)O)c2cc1O	> 200 µM	21.4 µM	–
CCC[CH2][Sn]([CH2]CCC)([S]CCS(=O)(=O)O)[S]CCS(=O)(=O)O (tested in a mixture with another compound)	> 200 µM	> 200 µM	–
COc1ccc2cc1Oc1cc3c(cc1OC)CC[N+](C)(C)C3Cc1ccc(cc1)Oc1c(OC)c(OC)cc3c1C(C2)[N+](C)(C)CC3 (stereo not given)	> 200 µM	> 200 µM	–
COc1ccc(CN=CN/C(C#N)=C(\N)C#N)cc1OC	> 200 µM	> 200 µM	–
c1ccc(C2C3=C(CCCC3)Nc3nc4cc5ccccc5cc4n32)cc1 (stereo not given)	> 200 µM	> 200 µM	–

Structure (SMILES)	EC50	IC50	outcome
CC(C)(C)Cc1cssc1=S	> 200 µM	> 200 µM	–
[N-]=[N+]=Nc1c(N2CCOCC2)c(Cl)nc2ccccc12	> 200 µM	55 µM	–
CCOC(=O)c1nnsc1NN	> 200 µM	166 µM	–
CS(=O)(=O)OCCCCOS(C)(=O)=O	> 204 µM	> 204 µM	–
N[C@H](CCC(=O)NCP(=O)(O)O)C(=O)O	> 200 µM	> 200 µM	–
CC(C)(C)c1ccc(C2(Br)C(=O)NC(=O)C2=O)cc1 (stereo not given)	> 200 µM	> 200 µM	–
CC1CC[C@]2(C(=O)O)CCC3(C)C(=CCC4[C@@]5(C)CC[C@H](OS(=O)(=O)c6ccccc6)C(C)(C)C5CC[C@]43C)[C@@H]2[C@H]1C (stereo not given in full)	–	–	inactive
CN1C(=O)C2CCCN2C(=O)C1(C)NC(=O)OCc1ccccc1 (stereo not given)	> 269 µM	> 269 µM	–
CC1=Nc2ccccc2S/C1=C(/C)NNC(=O)C(N)=O	> 89.1 µM	> 89.1 µM	–
COC(=O)CSSCc1ccc([N+](=O)[O-])cc1	> 200 µM	3.47 µM	–
C/C(CN1C(=O)c2ccccc2C1=O)=N\NS(=O)(=O)c1ccc(C)cc1	> 355 µM	> 355 µM	–
CC12CC(=O)Nc3ccccc3N1C(c1ccccc1)=NO2 (stereo not given)	> 200 µM	> 200 µM	–
Oc1cc(CN2CCOCCOCCOCCOCC2)c(O)cc1CN1CCOCCOCCOCCOCC1	> 437 µM	13.2 µM	–
Nc1ncnc2c1ncn2C1CCC(CO)OC1 (stereo not given)	> 200 µM	> 200 µM	–
CN(C)P1(=O)N(c2ccccc2)P(=O)(N(C)C)N1c1ccccc1 (stereo not given)	> 224 µM	> 224 µM	–
N#CC(C#N)SCc1ccccc1	–	–	inactive
CCOC(=O)c1sc2nc1CSc1sc(=S)sc1SCc1nc(sc1C(=O)OCC)-c1nc(c(C(=O)OCC)s1)CSc1sc(=S)sc1SCc1nc-2sc1C(=O)OCC	> 200 µM	> 200 µM	–
Cc1c(C#N)c2nc(C(=O)c3ccc(Br)cc3)cc(-c3ccc(Br)cc3)n2c1C	> 50.1 µM	> 50.1 µM	–
O=c1cc2c(Cl)cccc2n[nH]1	> 195 µM	> 195 µM	–
CCOC(=O)NC(NNc1ccc([N+](=O)[O-])cc1[N+](=O)[O-])(C(F)(F)F)C(F)(F)F	> 200 µM	43.7 µM	–
O=C1NC(=O)c2c1c1cnn(-c3ccccc3)c1n1cccc21	> 74.1 µM	> 74.1 µM	–
